In patent publication US20220000967A1, “SYNTHETIC PEPTIDES INDUCING IMMUNOGENIC CELL DEATH” (SORBONNE UNIVERSITE, priority 2018, published 2022):

Columns and labels:
L5178Y-R tumor [1] = test: PKHB1 treatment of L5178Y-R tumor-bearing mice; type: in vivo, BALB/c mice
Method: The heparinized blood acquired from mice, was assessed using the Automatic Hematology Analyzer KontroLab. Blood smears were performed and fixed with methanol, stained with Wright's, and observed under the microscope to perform differential blood white cells counts.
(§1) Six-to-eight-week-old BALB/c female mice were maintained in controlled environmental conditions (25° C. and 12h light/dark cycle) and were supplied with rodent food (Science diet) and water ad libitum. • Prophylactic vaccinations: L5178Y-R cells (1.5, 3, 5×10^6) were treated with 300 μM of PKHB1 (CC100) for 2h. Cell death was confirmed using trypan blue staining and flow cytometry. Treated cells were inoculated subcutaneously in 100 μl PBS into the left hind of the leg, whereas 2×10^6 untreated control cells were inoculated into the right hind 7 days later (42). • Tumor establishment and measurement: Tumor was established by the subcutaneous injection of 1×10^6 L5178Y-R cells in 100 μL PBS, into the left hind of the leg. Tumor volume and weight were measured three times per week using a caliper (Digimatic Caliper Mitutoyo Corporation, Japan) and a digital scale (American Weigh Scale-600-BLK, USA). When the tumor reached 100 mm^3 the first PKHB1 injection (200 μg) was applied (day 0). Tumor volume was determined with the formula: tumor volume (mm3)=[…]*A*B*C. Long-term memory assay: Mice in complete remission after PKHB1 treatment, were rechallenged with 2×10^6 cells in 100 μL of PBS, into the opposite limb, and tumor volume was measured like described above.
Tissues and organs were obtained and fixed in 10% neutral formalin, embedded in paraffin, sectioned (5 µm thickness) and stained with H&E (Sigma-Aldrich, St Louis, Mo., USA). Histopathological analysis was done by an external veterinarian pathologist (National professional certificate 2593012). Immunohistochemistry was done using the appropriate primary antibody (CD4/CD8) and adding the biotinylated secondary antibody. Finally, hematoxylin-counterstained slides are coverslipped using resin as mounting solution and observed under microscopy.

CEM [2] = test: Calreticulin exposure (flow cytometry, confocal microscopy); type: cell-based, human; settings: CC50 of PKHB1, 2h
Method: (§2) 1×10^6 cells/mL were plated, treated with PKHB1, and incubated for 2h. Cells were harvested, washed, and stained with Calreticulin-PE (FMC-75, Enzo Life Science, Farmingdale, N.Y., USA) antibody (1:1000) in FACS buffer. After 1h of incubation in darkness at room temperature, cells were washed and resuspended in 100Lp of FACS buffer to be assessed by flow cytometry. For confocal microscopy (OlympusX70), poly-Llysine was added 24h to sterile coverslips and 1×10^6 cells/mL were seeded. PKHB1 was added and incubated for 2h. Then, the cells were stained with Calreticulin-PE antibody (1:500) and Hoechst, incubated 1h, and assessed by confocal microscopy.

MOLT-4 [3] = test: as above; type: cell-based, human; settings: CC50 of PKHB1, 2h
Method: as §2

L5178Y-R [4] = test: as above; type: cell-based, murine; settings: CC50 of PKHB1, 2h
Method: as §2

CEM [5] = test: Western blot of HSP90, HSP70, CRT and HMGB1; type: cell-based, human; settings: CC50 and CC100, 2h
Method: (§3) 1×10^6 cells/mL were seeded in a serum-free culture medium and treated with PKHB1 (CC50 and CC100 for each cell line) or left alone (Control) for 2h. Supernatants was recovered and lysed with lysis buffer (20 mM Tris pH 6.8, 2 mM EDTA, 300 mM NaCl and SDS 2%). Protein concentration was measured using the DC Protein Assay kit (Bio-Rad, Hercules, Calif., USA) and 50 μg of protein were loaded into SDS-PAGE gels. After blotting, nitrocellulose filters were probed with primary antibodies (1:1000) against HMGB1 (HAP46.5: sc-56698), HSP70 (C92F3A-5: sc-66048), HSP90 (F-8: SC-13119) and Calreticulin (F-4: sc373863). Anti-mouse or anti-rabbit-HRP served as secondary antibodies (Santa Cruz Biotechnology, CA, USA). Visualization was performed with ECL substrate system (Thermo Scientific, Waltham, Mass., USA).

MOLT-4 [6] = test: Western blot of HSP90, HSP70, CRT and HMGB1; type: cell-based, human; settings: CC50 and CC100, 2h
Method: as §3

L5178Y-R [7] = test: Western blot of HSP90, HSP70, CRT and HMGB1; type: cell-based, murine; settings: CC50 and CC100, 2h
Method: as §3

CEM [8] = test: HMGB1 release assay (ELISA); type: cell-based, human; settings: PKHB1 CC100, 2h
Method: (§4) Supernatants of untreated and treated (PKHB1 CC50 and CC100 for each cell line) leukemic cells (1×10^6 cells/mL) were used to measure extracellular HMGB1 using the HMGB1 ELISA kit for CEM, MOLT-4 or L5178Y-R cells (BioAssay ELISA kit Human or mouse respectively, US biological Life Science Salem, Mass., USA), following the manufacturer instructions. Absorbance was assessed at 450 nm.

MOLT-4 [9] = test: HMGB1 release assay (ELISA); type: cell-based, human
Method: as §4

L5178Y-R [10] = test: HMGB1 release assay (ELISA); type: cell-based, murine; settings: PKHB1 CC100, 2h
Method: as §4

CEM [11] = test: ATP release assay (luciferase bioluminescence); type: cell-based, human; settings: CC50 and CC100, 2h
Method: (§5) 1×10^6 cells/mL were treated with PKHB1 (CC50 and CC100 for each cell lines) for 2h. Supernatants were used to assess extracellular ATP by a luciferase assay (ENLITEN kit, Promega, Madison Wis., USA) following the manufacturer's instructions. Bioluminescence was assessed in a microplate reader (Synergy HT, BioTek, Software Gen5, Winooski, Vt., USA) at 560 nm.

MOLT-4 [12] = test: ATP release assay (luciferase bioluminescence); type: cell-based, human; settings: CC50 and CC100, 2h
Method: as §5

L5178Y-R [13] = test: ATP release assay (luciferase bioluminescence); type: cell-based, murine; settings: CC50 and CC100, 2h
Method: as §5

L5178Y-R tumor [14] = test: Long-term memory assay, rechallenge of mice in remission after PKHB1 treatment; type: in vivo, BALB/c mice; settings: mice with complete regression after PKHB1-treatment, rechallenged with 2×10^6 L5178Y-R viable cells
Method: as §1

[15] = PKHB1-treated vs untreated tumor-bearing mice, trypan blue count

Structure (SMILES): CSCC[C@H](NC(=O)[C@@H](NC(=O)[C@@H](NC(=O)[C@H](Cc1ccc(O)cc1)NC(=O)[C@H](Cc1ccccc1)NC(=O)[C@H](CCCNC(=N)N)NC(=O)[C@H](N)CCCCN)C(C)C)C(C)C)C(=O)N[C@@H](Cc1c[nH]c2ccccc12)C(=O)N[C@@H](CCCCN)C(=O)N[C@H](CCCCN)C(=O)O [PKHB1, (D)K-R-F-Y-V-V-M-W-K-(D)K]
- tumor regression (L5178Y-R tumor [1]; 200 μg PKHB1 intraperitoneally weekly, day 30): complete tumor regression in most of the mice
- immunohistochemistry of tumor sections, CD4+ and CD8+ cells (L5178Y-R tumor [1]; PKHB1-treated tumor-bearing mice): presence of CD4+ and CD8+ cells
- WBC differential (L5178Y-R tumor [1]; PKHB1-treated tumor-bearing mice vs healthy mice): no significant difference
- cell number of BM, spleen and thymus cells (L5178Y-R tumor [1]; [15]): significant increase
- cell number of lymph nodes (L5178Y-R tumor [1]; [15]): significant decrease
- CRT exposure (CEM [2]): significant increase
- CRT exposure (MOLT-4 [3]): significant increase
- CRT exposure (L5178Y-R [4]): significant increase
- expression of HSP90, HSP70, CRT and HMGB1 in cellular lysates (CEM [5]): decrease
- expression of HSP90, HSP70, CRT and HMGB1 in supernatants (CEM [5]; vs untreated cells): increased
- expression of HSP90, HSP70, CRT and HMGB1 in cellular lysates (MOLT-4 [6]): decrease
- expression of HSP90, HSP70, CRT and HMGB1 in supernatants (MOLT-4 [6]; vs untreated cells): increased
- expression of HSP90, HSP70, CRT and HMGB1 in cellular lysates (L5178Y-R [7]): decrease
- expression of HSP90, HSP70, CRT and HMGB1 in supernatants (L5178Y-R [7]; vs untreated cells): increased
- HMGB1 release compared to the untreated control (CEM [8]): 6 fold
- HMGB1 release with respect to the control (MOLT-4 [9]; PKHB1 CC50, 2h): 8 fold
- HMGB1 release compared to the untreated control (MOLT-4 [9]; PKHB1 CC100, 2h): 4 fold
- HMGB1 release compared to the untreated control (L5178Y-R [10]): 2 fold
- presence of ATP in supernatants (CEM [11]): significantly augmented
- presence of ATP in supernatants (MOLT-4 [12]): significantly augmented
- presence of ATP in supernatants (L5178Y-R [13]): significantly augmented
- rechallenged mice that developed the tumor (L5178Y-R tumor [14]): ≈ 17%
- survival of re-challenged mice (Kaplan-Meier) (L5178Y-R tumor [14]): 90%
